Data from patent US8686044B2, “Amide derivative, pest control agent containing the amide derivative, and use of the amide derivative” (Mitsui Chemicals Agro, Inc., priority 2008, dated 2014).
Read-outs that look alike come from different tables or passages of the source.

Tests used:
Assay type in all cases: in vivo
[1] = tested on: Spodoptera litura; experiment: Pesticidal test against Spodoptera litura (cabbage leaf dip); conditions: foliar, 144 h, 2-stage larvae, examined after 6 days, 25° C., read-out: pesticidal rate; for pest or weed control at 1 ppm: concentration 1 ppm
Summary of the method: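 Cabbage leaf pieces dipped 30 seconds in compound solution at a predetermined concentration and air-dried, then offered to second-stage larvae, five per group in two replicates. Held at 25° C. Living and dead larvae counted after 6 days.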

[2] = tested on: Musca domestica; experiment: Pesticidal test against Musca domestica (petri dish dry film); conditions: 24 h, concentration 100 ppm, female adults, examined after 1 day, 25° C., read-out: pesticidal rate
Description: Pesticidal Test against Musca domestica
1 ml of an acetone solution in which a test compound had been prepared at a predetermined concentration was added dropwise to a petri dish having a diameter of 9 cm, and air-dried, and then the female adults of Musca domestica were released and the petri dish was capped. They were left to stand in a thermostatic chamber at 25° C., and the numbers of the living pests and the dead pests were examined after 1 day. The test was carried out with five larvae per group in two replicates.

[3] = tested on: Plutella xylostella; experiment: Pesticidal test against Plutella xylostella (cabbage leaf dip); conditions: foliar, 144 h, 2-stage larvae, examined after 6 days, 25° C., read-out: pesticidal rate; for pest or weed control at 1 ppm: concentration 1 ppm; for pest or weed control at 10 ppm: concentration 10 ppm
Summary of the method: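 Second-stage larvae (5 per group, two replicates) were released onto air-dried cabbage leaf discs that had been immersed for 30 seconds in compound solution at a set concentration. Mortality was scored after 6 days at 25° C.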

[4] = tested on: Laodelphax striatellus; experiment: Pesticidal test against Laodelphax striatellus (rice seedling spray); conditions: 144 h, read-out: pesticidal rate
Summary of the method: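 Rice seedlings sprayed with 2.5 ml acetone solution of compound at a predetermined concentration, air-dried, then infested with third-stage Laodelphax striatellus larvae in capped water-containing tubes at 25 °C. Living and dead insects counted after 6 days; ten larvae per group, two replicates.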

[5] = concentration 100 ppm, 3-stage larvae, examined after 6 days, 25° C.

O=C(Nc1c(I)cc(C(F)(C(F)(F)F)C(F)(F)F)cc1C(F)(F)F)c1cccc(NC(=O)c2ccccc2Cl)c1 [6-428]
≥ 70%: pest or weed control at 1 ppm [1] | pest or weed control at 100 ppm [2] | pest or weed control at 1 ppm [3]

O=C(Nc1c(I)cc(C(F)(C(F)(F)F)C(F)(F)F)cc1C(F)(F)F)c1cccc(NC(=O)c2cc(F)c(F)cc2Cl)c1 [6-450]
≥ 70%: pest or weed control at 1 ppm [1] | pest or weed control at 100 ppm [2] | pest or weed control at 1 ppm [3]

O=C(Nc1c(I)cc(C(F)(C(F)(F)F)C(F)(F)F)cc1C(F)(F)F)c1cccc(NC(=O)c2ccc(Cl)cc2Br)c1 [6-452]
≥ 70%: pest or weed control at 1 ppm [1] | pest or weed control at 100 ppm [2] | pest or weed control at 10 ppm [3]

O=C(Nc1c(I)cc(C(F)(C(F)(F)F)C(F)(F)F)cc1C(F)(F)F)c1cccc(NC(=O)c2ccc(F)cc2Br)c1 [6-453]
≥ 70%: pest or weed control at 1 ppm [1] | pest or weed control at 100 ppm [2] | pest or weed control at 1 ppm [3]

O=C(Nc1c(I)cc(C(F)(C(F)(F)F)C(F)(F)C(F)(F)F)cc1I)c1cccc(NC(=O)c2c(F)cccc2F)c1F (centres unmarked) [6-1360]
≥ 70%: pest or weed control at 100 ppm [4, 5] | pest or weed control at 1 ppm [1] | pest or weed control at 100 ppm [2] | pest or weed control at 1 ppm [3]

O=C(Nc1cccc(C(=O)Nc2c(I)cc(C(F)(C(F)(F)F)C(F)(F)C(F)(F)F)cc2I)c1F)c1cccnc1Cl (centres unmarked) [6-1374]
≥ 70%: pest or weed control at 100 ppm [4, 5] | pest or weed control at 1 ppm [1] | pest or weed control at 100 ppm [2] | pest or weed control at 1 ppm [3]

O=C(Nc1cccc(C(=O)Nc2c(I)cc(C(F)(C(F)(F)F)C(F)(F)F)cc2C(F)(F)F)c1F)c1ccccc1Cl [6-1734]
≥ 70%: pest or weed control at 100 ppm [4, 5] | pest or weed control at 1 ppm [1] | pest or weed control at 100 ppm [2] | pest or weed control at 1 ppm [3]

O=C(Nc1cccc(C(=O)Nc2c(I)cc(C(F)(C(F)(F)F)C(F)(F)C(F)(F)F)cc2C(F)(F)F)c1F)c1cccc(F)c1 (centres unmarked) [6-1810]
≥ 70%: pest or weed control at 100 ppm [4, 5] | pest or weed control at 1 ppm [1] | pest or weed control at 100 ppm [2] | pest or weed control at 1 ppm [3]

CN(C(=O)c1ccccc1F)c1cccc(C(=O)Nc2c(Br)cc(C(F)(C(F)(F)F)C(F)(F)C(F)(F)F)cc2Br)c1 (centres unmarked) [7-39]
≥ 70%: pest or weed control at 1 ppm [1] | pest or weed control at 100 ppm [2] | pest or weed control at 1 ppm [3]

CN(C(=O)c1ccccc1)c1cccc(C(=O)Nc2c(Br)cc(C(F)(C(F)(F)F)C(F)(F)C(F)(F)F)cc2C(F)(F)F)c1 (centres unmarked) [7-346]
≥ 70%: pest or weed control at 100 ppm [4, 5] | pest or weed control at 1 ppm [1] | pest or weed control at 100 ppm [2] | pest or weed control at 1 ppm [3]

CN(C(=O)c1c(F)cccc1F)c1cccc(C(=O)Nc2c(Br)cc(C(F)(C(F)(F)F)C(F)(F)C(F)(F)F)cc2C(F)(F)F)c1 (centres unmarked) [7-368]
≥ 70%: pest or weed control at 100 ppm [4, 5] | pest or weed control at 1 ppm [1] | pest or weed control at 100 ppm [2] | pest or weed control at 1 ppm [3]

CN(C(=O)c1ccccc1Cl)c1cccc(C(=O)Nc2c(I)cc(C(F)(C(F)(F)F)C(F)(F)F)cc2C(F)(F)F)c1 [7-428]
≥ 70%: pest or weed control at 1 ppm [1] | pest or weed control at 100 ppm [2] | pest or weed control at 1 ppm [3]

CN(C(=O)c1ccc(F)cc1Cl)c1cccc(C(=O)Nc2c(I)cc(C(F)(C(F)(F)F)C(F)(F)F)cc2C(F)(F)F)c1 [7-449]
≥ 70%: pest or weed control at 1 ppm [1] | pest or weed control at 100 ppm [2] | pest or weed control at 1 ppm [3]

CN(C(=O)c1cccc(F)c1)c1cccc(C(=O)Nc2c(I)cc(C(F)(C(F)(F)F)C(F)(F)C(F)(F)F)cc2I)c1F (centres unmarked) [7-1340]
≥ 70%: pest or weed control at 100 ppm [4, 5] | pest or weed control at 1 ppm [1] | pest or weed control at 100 ppm [2] | pest or weed control at 1 ppm [3]

CN(C(=O)c1c(F)cccc1F)c1cccc(C(=O)Nc2c(I)cc(C(F)(C(F)(F)F)C(F)(F)C(F)(F)F)cc2I)c1F (centres unmarked) [7-1360]
≥ 70%: pest or weed control at 100 ppm [4, 5] | pest or weed control at 1 ppm [1] | pest or weed control at 100 ppm [2] | pest or weed control at 1 ppm [3]

CN(C(=O)c1ccccc1)c1cccc(C(=O)Nc2c(Cl)cc(C(F)(C(F)(F)F)C(F)(F)F)cc2C(F)(F)F)c1F [7-1417]
≥ 70%: pest or weed control at 100 ppm [4, 5] | pest or weed control at 1 ppm [1] | pest or weed control at 100 ppm [2] | pest or weed control at 1 ppm [3]

CN(C(=O)c1cccc(C#N)c1)c1cccc(C(=O)Nc2c(I)cc(C(F)(C(F)(F)F)C(F)(F)C(F)(F)F)cc2C(F)(F)F)c1F (centres unmarked) [7-1828]
≥ 70%: pest or weed control at 100 ppm [4, 5] | pest or weed control at 1 ppm [1] | pest or weed control at 100 ppm [2] | pest or weed control at 1 ppm [3]

CN(C(=O)c1ccccc1)c1cccc(C(=O)N(C)c2c(Br)cc(C(F)(C(F)(F)F)C(F)(F)F)cc2C(F)(F)F)c1F [9-2164, N-(2-bromo-4-(perfluoropropan-2-yl)-6-(trifluoromethyl)phenyl)-2-fluoro-N-methyl-3-(N-methylbenzamide)benzamide]
≥ 70%: pest or weed control at 100 ppm [4, 5] | pest or weed control at 1 ppm [1] | pest or weed control at 100 ppm [2] | pest or weed control at 1 ppm [3]

CN(C(=O)c1cccc(F)c1)c1cccc(C(=O)N(C)c2c(I)cc(C(F)(C(F)(F)F)C(F)(F)F)cc2C(F)(F)F)c1F [9-2322]
≥ 70%: pest or weed control at 100 ppm [4, 5] | pest or weed control at 1 ppm [1] | pest or weed control at 100 ppm [2] | pest or weed control at 1 ppm [3]

O=C(Nc1cccc(C(=O)Nc2c(Br)cc(C(F)(C(F)(F)F)C(F)(F)F)cc2C(F)(F)F)c1F)OCC(Cl)(Cl)Cl [11-777]
≥ 70%: pest or weed control at 1 ppm [1] | pest or weed control at 100 ppm [2] | pest or weed control at 1 ppm [3]

O=C(Nc1cccc(C(=O)Nc2c(I)cc(C(F)(C(F)(F)F)C(F)(F)F)cc2C(F)(F)F)c1F)OCC(Cl)(Cl)Cl [11-835]
≥ 70%: pest or weed control at 1 ppm [1] | pest or weed control at 100 ppm [2] | pest or weed control at 1 ppm [3]

CN(C(=O)OCC(Cl)(Cl)Cl)c1cccc(C(=O)Nc2c(Br)cc(C(F)(C(F)(F)F)C(F)(F)F)cc2C(F)(F)F)c1F [12-777]
≥ 70%: pest or weed control at 1 ppm [1] | pest or weed control at 100 ppm [2] | pest or weed control at 1 ppm [3]

CN(C(=O)OCC(Cl)(Cl)Cl)c1cccc(C(=O)Nc2c(I)cc(C(F)(C(F)(F)F)C(F)(F)F)cc2C(F)(F)F)c1F [12-835]
≥ 70%: pest or weed control at 100 ppm [4] | pest or weed control at 1 ppm [1] | pest or weed control at 100 ppm [2] | pest or weed control at 1 ppm [3]

CN(C(=O)OCC(Cl)(Cl)Cl)c1cccc(C(=O)Nc2c(I)cc(C(F)(C(F)(F)F)C(F)(F)C(F)(F)F)cc2C(F)(F)F)c1F (centres unmarked) [12-864, 2,2,2-trichloroethyl 2-fluoro-3-(2-iodo-4-(perfluorobutan-2-yl)-6-(trifluoromethyl)phenylcarbamoyl)phenyl(methyl)carbamate]
≥ 70%: pest or weed control at 100 ppm [4] | pest or weed control at 1 ppm [1] | pest or weed control at 100 ppm [2] | pest or weed control at 1 ppm [3]

CN(C(=O)c1ccccc1)c1cccc(C(=O)Nc2c(Br)cc(C(F)(C(F)(F)F)C(F)(F)F)cc2C(F)(F)F)n1 [17-1103, N-(2-bromo-4-(perfluoropropan-2-yl)-6-(trifluoromethyl)phenyl)-6-(N-methylbenzamide)picolinamide]
≥ 70%: pest or weed control at 10 ppm ([1]; concentration 10 ppm) | pest or weed control at 100 ppm [2] | pest or weed control at 10 ppm [3]

CN(C(=O)c1ccccc1)c1nc(C(=O)Nc2c(Br)cc(C(F)(C(F)(F)F)C(F)(F)F)cc2C(F)(F)F)cs1 [27-627]
≥ 70%: pest or weed control at 1 ppm [1] | pest or weed control at 100 ppm [2] | pest or weed control at 10 ppm [3]
